Assays:
[1] = Biodistribution of [^18F]-radioactivity in healthy male NMRI mice after intravenous injection (gamma counter); assay type: in vivo; settings: mice, brain, 2 min to 30 min
Description: The biodistribution of [^18F]-2d and [^18F]-5d was investigated in healthy male NMRI mice (28.3-35.6 g body weight, n=3 animals per time point) at 2, 5, 30, 60 and 180/240 min after intravenous injection of 0.264 MBq [^18F]-2d and 0.268 MBq [^18F]-5d per animal, respectively. Until the indicated time points urine and faeces were quantitatively collected. At the respective time points the mice were sacrificed and the tissues were removed. [^18F]-radioactivity was analyzed in a gamma counter (Tab. 1.1, 2.1 and 1.2, 2.2).

[2] = target: T1, peripheral benzodiazepine receptor (PBR) (Rattus norvegicus, UniProt P16257); experiment: Ex vivo autoradiography of brain sections, rat kainic acid induced epilepsy model; assay type: in vivo; settings: rat kainic acid model, 30 min ex vivo autoradiography
T1 construct: from tissue; host or cells: rat brain (hippocampus, cerebellum) after i.v. tracer injection
Description: Using a rat kainic acid induced epilepsy model and respective sham controls the accumulation of [^18F]-2d and [^18F]-5d was visualized ex vivo. In brief, epilepsy was induced in rats by injecting kainic acid i.p. At day eight after the start of the kainic acid treatment [^18F]-2d and [^18F]-5d were injected into the tail vein of the rats and their sham treated controls (PBS instead of kainic acid) at a dose of 25.8-35.8 MBq (approximately 1.0 μg) per rat. Thirty minutes after intravenous injection the rats were sacrificed, the brains were taken out, snap frozen and sliced transversally in a cryostat. The slices were exposed to PhosphoImager plates over night. The resulting autoradiographic signals were analyzed qualitatively and quantitatively (FIG. 2.1 A and C, 2.2 A and C). […] To determine the specificity of the [^18F]-2d and [^18F]-5d binding, kainic acid treated rats were co-injected with [^19F]-2e and [^19F]-5e, respectively.
The autoradiographic signals were quantified. The signal intensity in a hippocampal region of interest (ROI) was measured and compared to a ROI in the cerebellum, that was used as reference region.

SMILES | Elimination from mouse brain, 2 min/30 min ratio of brain uptake (% ID/g) [1] | Elimination from mouse brain, 2 min/30 min ratio of brain uptake (% ID/g) ([1]; listed as FEDAA) | Hipp/Cereb ratio (signal-to-background ratio, hippocampus/cerebellum) [2]
COc1ccc(OCC[18F])c(CN(C(C)=O)c2cc(F)ccc2Oc2ccccc2)c1 [[^18F]-FEDAA1106, reference compound] | 2.0 | 2.00 | 1.2±0.2
COc1ccc(OCC[18F])c(CN(C(C)=O)c2cccnc2Cc2ccc(F)cc2)c1 [compound 21] | 4.85 |  | 

Reference: patent publication US20110200535A1, “DAA-PYRIDINE AS PERIPHERAL BENZODIAZEPINE RECEPTOR LIGAND FOR DIAGNOSTIC IMAGING AND PHARMACEUTICAL TREATMENT” (BAYER SCHERING PHARMA AKTIENGESELLSCHAFT, priority 2008, published 2011)
